Numbers after ± are expanded uncertainties.
Settings: Liquid; for mass density: 101.33 kPa, Vibrating tube method; for vapor or sublimation pressure: Closed cell (Static) method

## OCC(F)(F)C(F)(F)F [2,2,3,3,3-pentafluoropropanol]
278.16 K
  mass density: 1542.78 ± 2.2 kg/m3
279.15 K
  mass density: 1540.99 ± 2.2 kg/m3
280.15 K
  mass density: 1539.17 ± 2.2 kg/m3
281.15 K
  mass density: 1537.35 ± 2.2 kg/m3
282.15 K
  mass density: 1535.52 ± 2.1 kg/m3
283.15 K
  mass density: 1533.69 ± 2.1 kg/m3
284.15 K
  mass density: 1531.86 ± 2.1 kg/m3
285.15 K
  mass density: 1530.02 ± 2.1 kg/m3
286.15 K
  mass density: 1528.18 ± 2.1 kg/m3
287.15 K
  mass density: 1526.33 ± 2.1 kg/m3
288.15 K
  mass density: 1524.47 ± 2.1 kg/m3
289.15 K
  mass density: 1522.62 ± 2.1 kg/m3
290.15 K
  mass density: 1520.75 ± 2.1 kg/m3
291.15 K
  mass density: 1518.88 ± 2.1 kg/m3
292.15 K
  mass density: 1517 ± 2.1 kg/m3
293.15 K
  mass density: 1515.12 ± 2.1 kg/m3
294.15 K
  mass density: 1513.23 ± 2.1 kg/m3
295.15 K
  mass density: 1511.35 ± 2.1 kg/m3
296.15 K
  mass density: 1509.44 ± 2.1 kg/m3
297.15 K
  mass density: 1507.54 ± 2.1 kg/m3
298.08 K
  vapor or sublimation pressure: 6.205 ± 0.05 kPa
298.15 K
  mass density: 1505.63 ± 2.1 kg/m3
299.15 K
  mass density: 1503.71 ± 2.1 kg/m3
300.15 K
  mass density: 1501.79 ± 2.1 kg/m3
301.15 K
  mass density: 1499.86 ± 2 kg/m3
302.15 K
  mass density: 1497.92 ± 2 kg/m3
303.05 K
  vapor or sublimation pressure: 8.416 ± 0.058 kPa
303.15 K
  mass density: 1495.97 ± 2 kg/m3
304.15 K
  mass density: 1494.03 ± 2 kg/m3
305.14 K
  mass density: 1492.07 ± 2 kg/m3
306.15 K
  mass density: 1490.1 ± 2 kg/m3
307.15 K
  mass density: 1488.13 ± 2 kg/m3
308.04 K
  vapor or sublimation pressure: 11.31 ± 0.074 kPa
308.15 K
  mass density: 1486.15 ± 2 kg/m3
309.14 K
  mass density: 1484.16 ± 2 kg/m3
310.14 K
  mass density: 1482.16 ± 2 kg/m3
311.14 K
  mass density: 1480.16 ± 2 kg/m3
312.14 K
  mass density: 1478.14 ± 2 kg/m3
313.01 K
  vapor or sublimation pressure: 14.97 ± 0.094 kPa
313.14 K
  mass density: 1476.12 ± 2 kg/m3
314.15 K
  mass density: 1474.09 ± 2 kg/m3
315.15 K
  mass density: 1472.06 ± 2 kg/m3
316.14 K
  mass density: 1470.01 ± 2 kg/m3
317.14 K
  mass density: 1467.95 ± 2 kg/m3
317.98 K
  vapor or sublimation pressure: 19.59 ± 0.12 kPa
318.15 K
  mass density: 1465.89 ± 2 kg/m3
319.14 K
  mass density: 1463.82 ± 1.9 kg/m3
320.14 K
  mass density: 1461.73 ± 1.9 kg/m3
321.15 K
  mass density: 1459.64 ± 1.9 kg/m3
322.14 K
  mass density: 1457.55 ± 1.9 kg/m3
322.96 K
  vapor or sublimation pressure: 25.41 ± 0.15 kPa
323.14 K
  mass density: 1455.43 ± 1.9 kg/m3
324.14 K
  mass density: 1453.31 ± 1.9 kg/m3
325.14 K
  mass density: 1451.18 ± 1.9 kg/m3
326.14 K
  mass density: 1449.05 ± 1.9 kg/m3
327.14 K
  mass density: 1446.89 ± 1.9 kg/m3
327.93 K
  vapor or sublimation pressure: 32.49 ± 0.17 kPa
328.15 K
  mass density: 1444.74 ± 1.9 kg/m3
329.15 K
  mass density: 1442.57 ± 1.9 kg/m3
330.14 K
  mass density: 1440.39 ± 1.9 kg/m3
331.14 K
  mass density: 1438.2 ± 1.9 kg/m3
332.14 K
  mass density: 1436 ± 1.9 kg/m3
333.14 K
  mass density: 1433.79 ± 1.9 kg/m3
334.14 K
  mass density: 1431.57 ± 1.9 kg/m3
335.14 K
  mass density: 1429.34 ± 1.9 kg/m3
336.14 K
  mass density: 1427.1 ± 1.8 kg/m3
337.14 K
  mass density: 1424.84 ± 1.8 kg/m3
338.14 K
  mass density: 1422.58 ± 1.8 kg/m3
339.14 K
  mass density: 1420.31 ± 1.8 kg/m3
340.14 K
  mass density: 1418.03 ± 1.8 kg/m3
341.14 K
  mass density: 1415.72 ± 1.8 kg/m3
342.14 K
  mass density: 1413.42 ± 1.8 kg/m3
343.15 K
  mass density: 1411.1 ± 1.8 kg/m3
344.15 K
  mass density: 1408.78 ± 1.8 kg/m3
345.15 K
  mass density: 1406.43 ± 1.8 kg/m3
346.15 K
  mass density: 1404.08 ± 1.8 kg/m3
347.15 K
  mass density: 1401.72 ± 1.8 kg/m3
348.15 K
  mass density: 1399.34 ± 1.8 kg/m3
349.14 K
  mass density: 1396.95 ± 1.8 kg/m3
350.14 K
  mass density: 1394.55 ± 1.8 kg/m3
351.14 K
  mass density: 1392.14 ± 1.8 kg/m3
352.14 K
  mass density: 1389.72 ± 1.7 kg/m3
353.14 K
  mass density: 1387.29 ± 1.7 kg/m3

## OCC(F)(F)C(F)(F)C(F)(F)F [2,2,3,3,4,4,4-heptafluorobutanol]
278.14 K
  vapor or sublimation pressure: 0.7213 ± 0.013 kPa
278.15 K
  mass density: 1633.59 ± 2.4 kg/m3
279.15 K
  mass density: 1631.74 ± 2.4 kg/m3
280.15 K
  mass density: 1629.87 ± 2.4 kg/m3
281.15 K
  mass density: 1627.99 ± 2.4 kg/m3
282.15 K
  mass density: 1626.11 ± 2.4 kg/m3
283.1 K
  vapor or sublimation pressure: 1.047 ± 0.015 kPa
283.15 K
  mass density: 1624.23 ± 2.4 kg/m3
284.15 K
  mass density: 1622.34 ± 2.4 kg/m3
285.15 K
  mass density: 1620.44 ± 2.4 kg/m3
286.15 K
  mass density: 1618.54 ± 2.4 kg/m3
287.15 K
  mass density: 1616.63 ± 2.4 kg/m3
288.08 K
  vapor or sublimation pressure: 1.495 ± 0.018 kPa
288.15 K
  mass density: 1614.73 ± 2.4 kg/m3
289.15 K
  mass density: 1612.81 ± 2.4 kg/m3
290.15 K
  mass density: 1610.89 ± 2.4 kg/m3
291.15 K
  mass density: 1608.97 ± 2.4 kg/m3
292.15 K
  mass density: 1607.04 ± 2.4 kg/m3
293.08 K
  vapor or sublimation pressure: 2.117 ± 0.021 kPa
293.15 K
  mass density: 1605.11 ± 2.4 kg/m3
294.15 K
  mass density: 1603.16 ± 2.3 kg/m3
295.15 K
  mass density: 1601.22 ± 2.3 kg/m3
296.15 K
  mass density: 1599.26 ± 2.3 kg/m3
297.15 K
  mass density: 1597.31 ± 2.3 kg/m3
298.1 K
  vapor or sublimation pressure: 2.965 ± 0.025 kPa
298.15 K
  mass density: 1595.34 ± 2.3 kg/m3
299.15 K
  mass density: 1593.37 ± 2.3 kg/m3
300.15 K
  mass density: 1591.39 ± 2.3 kg/m3
301.15 K
  mass density: 1589.41 ± 2.3 kg/m3
302.15 K
  mass density: 1587.41 ± 2.3 kg/m3
303.07 K
  vapor or sublimation pressure: 4.086 ± 0.032 kPa
303.15 K
  mass density: 1585.41 ± 2.3 kg/m3
304.15 K
  mass density: 1583.41 ± 2.3 kg/m3
305.15 K
  mass density: 1581.4 ± 2.3 kg/m3
306.15 K
  mass density: 1579.38 ± 2.3 kg/m3
307.15 K
  mass density: 1577.36 ± 2.3 kg/m3
308.04 K
  vapor or sublimation pressure: 5.551 ± 0.04 kPa
308.15 K
  mass density: 1575.32 ± 2.3 kg/m3
309.14 K
  mass density: 1573.28 ± 2.3 kg/m3
310.15 K
  mass density: 1571.23 ± 2.3 kg/m3
311.15 K
  mass density: 1569.18 ± 2.2 kg/m3
312.15 K
  mass density: 1567.12 ± 2.2 kg/m3
313.03 K
  vapor or sublimation pressure: 7.473 ± 0.051 kPa
313.14 K
  mass density: 1565.05 ± 2.2 kg/m3
314.15 K
  mass density: 1562.97 ± 2.2 kg/m3
315.15 K
  mass density: 1560.89 ± 2.2 kg/m3
316.15 K
  mass density: 1558.79 ± 2.2 kg/m3
317.15 K
  mass density: 1556.69 ± 2.2 kg/m3
317.98 K
  vapor or sublimation pressure: 9.905 ± 0.065 kPa
318.15 K
  mass density: 1554.58 ± 2.2 kg/m3
319.14 K
  mass density: 1552.46 ± 2.2 kg/m3
320.15 K
  mass density: 1550.34 ± 2.2 kg/m3
321.15 K
  mass density: 1548.2 ± 2.2 kg/m3
322.14 K
  mass density: 1546.06 ± 2.2 kg/m3
322.95 K
  vapor or sublimation pressure: 13.14 ± 0.084 kPa
323.14 K
  mass density: 1543.91 ± 2.2 kg/m3
324.14 K
  mass density: 1541.75 ± 2.2 kg/m3
325.15 K
  mass density: 1539.58 ± 2.2 kg/m3
326.14 K
  mass density: 1537.4 ± 2.2 kg/m3
327.14 K
  mass density: 1535.21 ± 2.1 kg/m3
327.91 K
  vapor or sublimation pressure: 17.26 ± 0.096 kPa
328.15 K
  mass density: 1533.02 ± 2.1 kg/m3
329.15 K
  mass density: 1530.81 ± 2.1 kg/m3
330.14 K
  mass density: 1528.6 ± 2.1 kg/m3
331.14 K
  mass density: 1526.38 ± 2.1 kg/m3
332.15 K
  mass density: 1524.14 ± 2.1 kg/m3
333.14 K
  mass density: 1521.91 ± 2.1 kg/m3
334.14 K
  mass density: 1519.66 ± 2.1 kg/m3
335.14 K
  mass density: 1517.4 ± 2.1 kg/m3
336.14 K
  mass density: 1515.13 ± 2.1 kg/m3
337.14 K
  mass density: 1512.85 ± 2.1 kg/m3
338.14 K
  mass density: 1510.57 ± 2.1 kg/m3
339.14 K
  mass density: 1508.28 ± 2.1 kg/m3
340.14 K
  mass density: 1505.97 ± 2.1 kg/m3
341.14 K
  mass density: 1503.65 ± 2.1 kg/m3
342.14 K
  mass density: 1501.33 ± 2 kg/m3
343.14 K
  mass density: 1498.99 ± 2 kg/m3
344.15 K
  mass density: 1496.65 ± 2 kg/m3
345.15 K
  mass density: 1494.29 ± 2 kg/m3
346.15 K
  mass density: 1491.93 ± 2 kg/m3
347.15 K
  mass density: 1489.55 ± 2 kg/m3
348.14 K
  mass density: 1487.16 ± 2 kg/m3
349.14 K
  mass density: 1484.77 ± 2 kg/m3
350.14 K
  mass density: 1482.37 ± 2 kg/m3
351.14 K
  mass density: 1479.94 ± 2 kg/m3
352.14 K
  mass density: 1477.52 ± 2 kg/m3
353.14 K
  mass density: 1475.08 ± 2 kg/m3

Reference: the NIST ThermoML archive (doi:10.1016/j.fluid.2016.06.011)
